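Cells were grown in 96-well plates and exposed to each compound for 48 hours at five concentrations; endpoints were interpolated linearly between bracketing concentrations, or set to the highest concentration if not reached. Here, GI50 denotes the concentration required for 50% inhibition of growth.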 Active and inactive are the calls of the source. Cut-off read from the data, not from the text of the source: active = GI50 up to about 1.1 µM and inactive = higher.
Legend:
Assay in all cases: inhibition of tumour cell growth, NCI panel, 48 h
[1] = tested on: 786-0
[2] = tested on: BT-549
[3] = tested on: LOX IMVI
[4] = tested on: TK-10
[5] = tested on: A549
[6] = tested on: SR
[7] = tested on: HT-29
[8] = tested on: A498
[9] = tested on: UACC-62
[10] = tested on: SNB-19
[11] = tested on: OVCAR-8
[12] = tested on: ACHN
[13] = tested on: PC-3
[14] = tested on: SK-MEL-5
[15] = tested on: Malme-3M
[16] = tested on: SK-MEL-2
[17] = tested on: NCI-H226
[18] = tested on: SN12C
[19] = tested on: MOLT-4
[20] = tested on: HL-60
[21] = tested on: MDA-MB-231
[22] = tested on: NCI/ADR-RES
[23] = tested on: NCI-H23
[24] = tested on: SF-295
[25] = tested on: T47D
[26] = tested on: OVCAR-3
[27] = tested on: SK-MEL-28
[28] = tested on: COLO 205
[29] = tested on: OVCAR-4
[30] = tested on: MCF7
[31] = tested on: CAKI-1
[32] = tested on: HOP-62
[33] = tested on: EKVX
[34] = tested on: UACC-257
[35] = tested on: IGROV-1
[36] = tested on: SK-OV-3
[37] = tested on: KM12
[38] = tested on: HCC 2998
[39] = tested on: OVCAR-5
[40] = tested on: HCT-116
[41] = tested on: M14
[42] = tested on: Hs-578T
[43] = tested on: CCRF-CEM
[44] = tested on: HCT-15
[45] = tested on: K562
[46] = tested on: NCI-H522
[47] = tested on: NCI-H460
[48] = tested on: RPMI-8226
[49] = tested on: SF-268
[50] = tested on: SF-539
[51] = tested on: MDA-MB-435
[52] = tested on: SW-620
[53] = tested on: U-251
[54] = tested on: MDA-N
[55] = tested on: SNB-75
[56] = tested on: UO-31

COc1ccc(C2SCC(=O)N2c2ccc(-n3c(-c4ccccc4)nc4ccccc4c3=O)cc2)cc1OC (stereo unspecified)
GI50 [1]: > 100 µM (inactive)
GI50 [2]: > 100 µM (inactive)
GI50 [3]: > 100 µM (inactive)
GI50 [4]: > 100 µM (inactive)
GI50 [5]: > 100 µM (inactive)
GI50 [6]: > 100 µM (inactive)
GI50 [7]: > 100 µM (inactive)
GI50 [8]: > 100 µM (inactive)
GI50 [9]: 62.1 µM (inactive)
GI50 [10]: > 100 µM (inactive)
GI50 [11]: > 100 µM (inactive)
GI50 [12]: > 100 µM (inactive)
GI50 [13]: 71.3 µM (inactive)
GI50 [14]: > 100 µM (inactive)
GI50 [15]: > 100 µM (inactive)
GI50 [16]: > 100 µM (inactive)
GI50 [17]: 31.3 µM (inactive)
GI50 [18]: > 100 µM (inactive)
GI50 [19]: 24.5 µM (inactive)
GI50 [20]: > 100 µM (inactive)
GI50 [21]: > 100 µM (inactive)
GI50 [22]: > 100 µM (inactive)
GI50 [23]: > 100 µM (inactive)
GI50 [24]: > 100 µM (inactive)
GI50 [25]: 90.6 µM (inactive)
GI50 [26]: > 100 µM (inactive)
GI50 [27]: > 100 µM (inactive)
GI50 [28]: > 100 µM (inactive)
GI50 [29]: > 10 µM (inactive)
GI50 [30]: > 100 µM (inactive)
GI50 [31]: > 100 µM (inactive)
GI50 [32]: > 100 µM (inactive)
GI50 [33]: > 100 µM (inactive)
GI50 [34]: > 100 µM (inactive)
GI50 [35]: > 100 µM (inactive)
GI50 [36]: > 100 µM (inactive)
GI50 [37]: > 100 µM (inactive)
GI50 [38]: > 100 µM (inactive)
GI50 [39]: > 100 µM (inactive)
GI50 [40]: > 100 µM (inactive)
GI50 [41]: > 100 µM (inactive)
GI50 [42]: 99.8 µM (inactive)
GI50 [43]: > 100 µM (inactive)
GI50 [44]: > 100 µM
GI50 [45]: > 100 µM (inactive)
GI50 [46]: 90.6 µM (inactive)
GI50 [47]: > 100 µM (inactive)
GI50 [48]: > 100 µM (inactive)
GI50 [49]: > 100 µM (inactive)
GI50 [50]: > 100 µM (inactive)
GI50 [51]: > 100 µM (inactive)
GI50 [52]: > 100 µM (inactive)
GI50 [53]: > 100 µM (inactive)
GI50 [54]: > 100 µM (inactive)
GI50 [55]: 3.11 µM (inactive)
GI50 [56]: 12.9 µM (inactive)
